The values below come from BindingDB's records for doi:10.1021/jm300579z (Merck Research Laboratories, 2012).

The experiment deals with Pituitary adenylate cyclase-activating polypeptide type I receptor (Homo sapiens) (UniProt P41586). The experiment is described as follows: Antagonist activity at human PAC1 expressed in mouse […] 3T3 cells assessed as inhibition of glucagon-induced cAMP accumulation preincubated for 30 mins prior to glucagon challenge measured after 30 mins post glucagon challenge by liquid scintillation counter. (cAMP levels reflect the balance of adenylyl cyclase and phosphodiesterase activity.)
Sequence of Pituitary adenylate cyclase-activating polypeptide type I receptor (Homo sapiens) (P41586 whole entry, looked up): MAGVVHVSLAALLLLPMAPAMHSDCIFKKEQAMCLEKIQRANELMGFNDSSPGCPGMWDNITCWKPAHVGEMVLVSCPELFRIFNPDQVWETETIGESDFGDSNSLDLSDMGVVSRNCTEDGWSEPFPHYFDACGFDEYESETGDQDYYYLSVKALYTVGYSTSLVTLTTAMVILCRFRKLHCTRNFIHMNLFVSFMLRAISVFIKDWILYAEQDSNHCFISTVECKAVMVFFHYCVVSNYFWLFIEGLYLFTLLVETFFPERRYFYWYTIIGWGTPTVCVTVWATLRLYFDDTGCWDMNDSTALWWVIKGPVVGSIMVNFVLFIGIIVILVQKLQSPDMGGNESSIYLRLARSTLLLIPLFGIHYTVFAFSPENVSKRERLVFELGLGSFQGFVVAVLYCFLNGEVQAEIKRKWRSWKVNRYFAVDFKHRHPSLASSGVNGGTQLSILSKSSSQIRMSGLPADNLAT

Structures are written as SMILES.

As for `COc1ccc2cc(-c3cc(-c4cc(Cl)cc(Cl)c4)nn3[C@@H](C)c3ccc(C(=O)NCCC(=O)O)cc3)ccc2c1`, the IC50 came out at 9.2 µM.

A word on the IC50: it is the concentration that gives 50% inhibition.
